Results published in US10421778B2, “Isoform-selective lysine deacetylase inhibitors” (WASHINGTON UNIVERSITY, priority 2015, dated 2019).
Marks after values point to notes of the source that are not given here. Positions of bridges follow the written chain, without caps; N, C: chain ends. Non-standard residues stand in square brackets, D forms with d. Residues, ends and D or L forms follow the SMILES beside them. *: point of attachment. GABA = NCCCC(=O)O; NHOH = ON*

Columns and labels:
Assay in all cases: KDAC inhibition assay, Caliper EZ Reader II
Type in all cases: biochemical
recombinant human KDAC8 = biological target: T1, recombinant human KDAC8 (Homo sapiens, UniProt Q9BY41); settings: for KDAC Inhibition Activity KDAC8 (% inhibition): % inhibition at 30 μM
T1 construct: purchased BPS Bioscience
T1 sequence (Q9BY41 1-377): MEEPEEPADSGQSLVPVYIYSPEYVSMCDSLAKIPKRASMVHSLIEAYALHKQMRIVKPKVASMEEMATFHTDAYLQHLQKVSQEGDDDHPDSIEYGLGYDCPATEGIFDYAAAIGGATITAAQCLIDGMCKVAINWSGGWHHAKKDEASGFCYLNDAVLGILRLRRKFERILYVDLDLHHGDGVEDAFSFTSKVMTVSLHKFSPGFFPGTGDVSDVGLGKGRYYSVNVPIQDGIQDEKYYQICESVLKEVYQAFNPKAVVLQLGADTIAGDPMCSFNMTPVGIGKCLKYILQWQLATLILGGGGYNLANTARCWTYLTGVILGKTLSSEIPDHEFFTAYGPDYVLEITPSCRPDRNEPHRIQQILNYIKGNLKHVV

recombinant human KDAC6 = biological target: T2, recombinant human KDAC6 (Homo sapiens, UniProt Q9UBN7); settings: for KDAC Inhibition Activity KDAC6 (% inhibition): % inhibition at 30 μM
T2 construct: purchased BPS Bioscience
T2 sequence (Q9UBN7 1-1215): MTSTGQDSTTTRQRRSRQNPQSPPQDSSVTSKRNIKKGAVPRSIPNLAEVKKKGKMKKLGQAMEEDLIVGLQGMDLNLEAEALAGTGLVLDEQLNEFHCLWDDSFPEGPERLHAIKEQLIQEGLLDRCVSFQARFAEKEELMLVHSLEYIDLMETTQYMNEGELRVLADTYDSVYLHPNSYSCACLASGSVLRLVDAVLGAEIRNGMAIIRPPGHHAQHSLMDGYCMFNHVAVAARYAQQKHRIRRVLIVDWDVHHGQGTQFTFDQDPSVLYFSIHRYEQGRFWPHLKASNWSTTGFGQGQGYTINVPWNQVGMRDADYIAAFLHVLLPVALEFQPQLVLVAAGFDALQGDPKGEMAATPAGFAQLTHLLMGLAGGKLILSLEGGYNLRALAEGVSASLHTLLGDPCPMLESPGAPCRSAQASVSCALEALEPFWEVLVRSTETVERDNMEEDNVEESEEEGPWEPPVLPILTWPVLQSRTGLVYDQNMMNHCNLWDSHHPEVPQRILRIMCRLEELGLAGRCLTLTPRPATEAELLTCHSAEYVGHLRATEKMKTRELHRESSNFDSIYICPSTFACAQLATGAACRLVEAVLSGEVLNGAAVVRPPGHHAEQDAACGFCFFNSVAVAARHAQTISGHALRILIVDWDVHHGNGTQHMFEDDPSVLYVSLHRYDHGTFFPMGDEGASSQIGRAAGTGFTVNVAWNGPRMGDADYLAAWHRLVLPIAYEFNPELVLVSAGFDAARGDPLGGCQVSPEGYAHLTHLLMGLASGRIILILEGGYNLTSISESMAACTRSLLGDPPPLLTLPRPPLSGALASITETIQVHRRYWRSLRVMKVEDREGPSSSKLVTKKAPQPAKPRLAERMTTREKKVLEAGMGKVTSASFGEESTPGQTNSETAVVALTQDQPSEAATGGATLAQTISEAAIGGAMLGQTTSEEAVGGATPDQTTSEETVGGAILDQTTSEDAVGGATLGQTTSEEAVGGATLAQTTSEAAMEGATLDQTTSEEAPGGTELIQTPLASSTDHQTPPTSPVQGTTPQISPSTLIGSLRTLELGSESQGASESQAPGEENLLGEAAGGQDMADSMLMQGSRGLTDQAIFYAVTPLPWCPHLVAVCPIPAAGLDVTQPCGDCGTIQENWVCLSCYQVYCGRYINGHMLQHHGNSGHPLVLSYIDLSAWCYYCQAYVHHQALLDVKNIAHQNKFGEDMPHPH

recombinant human KDAC1 = biological target: T3, recombinant human KDAC1 (Homo sapiens, UniProt Q13547); settings: for KDAC Inhibition Activity KDAC1 (% inhibition): % inhibition at 30 μM
T3 construct: purchased BPS Bioscience

recombinant human KDAC3 = biological target: T4, recombinant human KDAC3 (Homo sapiens, UniProt O15379); settings: for KDAC Inhibition Activity KDAC3 (% inhibition): % inhibition at 30 μM
T4 construct: purchased BPS Bioscience
T4 sequence (O15379 whole entry): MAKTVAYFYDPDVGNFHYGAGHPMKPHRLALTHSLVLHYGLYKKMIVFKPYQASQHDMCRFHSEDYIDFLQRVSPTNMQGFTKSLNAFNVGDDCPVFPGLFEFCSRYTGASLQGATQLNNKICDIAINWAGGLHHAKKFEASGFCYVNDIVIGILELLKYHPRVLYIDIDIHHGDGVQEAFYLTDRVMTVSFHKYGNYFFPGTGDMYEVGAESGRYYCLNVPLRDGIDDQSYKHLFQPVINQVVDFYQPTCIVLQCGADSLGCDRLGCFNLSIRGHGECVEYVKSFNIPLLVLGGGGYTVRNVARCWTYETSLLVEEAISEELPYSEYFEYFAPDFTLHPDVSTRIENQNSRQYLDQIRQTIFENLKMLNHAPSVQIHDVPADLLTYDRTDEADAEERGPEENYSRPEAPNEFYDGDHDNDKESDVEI
T4 sequence (Q9Y618 395-489 partner limits assumed): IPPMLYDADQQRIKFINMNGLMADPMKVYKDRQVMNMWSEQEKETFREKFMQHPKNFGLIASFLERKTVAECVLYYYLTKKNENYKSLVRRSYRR

T3 sequence (Q13547 whole entry): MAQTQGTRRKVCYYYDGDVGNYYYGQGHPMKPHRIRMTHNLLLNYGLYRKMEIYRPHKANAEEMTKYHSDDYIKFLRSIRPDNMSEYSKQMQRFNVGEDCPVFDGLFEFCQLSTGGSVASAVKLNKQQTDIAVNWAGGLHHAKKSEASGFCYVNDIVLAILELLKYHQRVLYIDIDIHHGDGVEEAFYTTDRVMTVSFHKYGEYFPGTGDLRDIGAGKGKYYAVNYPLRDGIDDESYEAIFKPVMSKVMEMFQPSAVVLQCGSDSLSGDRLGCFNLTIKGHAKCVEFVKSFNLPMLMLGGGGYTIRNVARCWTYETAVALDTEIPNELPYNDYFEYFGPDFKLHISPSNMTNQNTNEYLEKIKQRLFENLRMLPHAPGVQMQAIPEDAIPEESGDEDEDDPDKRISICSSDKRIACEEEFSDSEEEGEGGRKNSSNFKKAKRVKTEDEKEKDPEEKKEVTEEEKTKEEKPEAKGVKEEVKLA

Compound | KDAC Inhibition Activity KDAC8 (% inhibition) (recombinant human KDAC8) | KDAC Inhibition Activity KDAC6 (% inhibition) (recombinant human KDAC6) | KDAC Inhibition Activity KDAC1 (% inhibition) (recombinant human KDAC1) | KDAC Inhibition Activity KDAC3 (% inhibition) (recombinant human KDAC3) | inhibition at 30 µM (recombinant human KDAC8) [%] | inhibition at 30 µM (recombinant human KDAC6) [%] | inhibition at 30 µM (recombinant human KDAC1) [%] | inhibition at 30 µM (recombinant human KDAC3) [%]
Cyclo-^DAsp(^DPro-Pro-Val)-OBn [Compound 1b] | 9% | 8% | 7% | 10% |  |  |  | 
Cyclo-Asp(^DPro-Pro-Val)-NHCH2CH2CH2COOH [Compound 13a] | 3% | Not active | Not active | Not active |  |  |  | 
Cyclo-Asp(Pro-^DPro-Val)-NHCH2CH2SH [Compound 17a] | 5% | 15% | Not active | 2% |  |  |  | 
Cyclo-^DAsp(^DPro-Pro-Val)-NHCH2CH2CH2SCH3 [Compound 7b] | 28% | Not active | 1.5% | Not active |  |  |  | 
Cyclo-^DAsp(Pro-^DPro-Val)-NHCH2CH2CH2S(═O)2CH3 [Compound 21b] | 8% | 12% | Not active | Not active |  |  |  | 
Cyclo-^DAsp(^DPro-Pro-Val)-NHCH2CH2CH2SH [Compound 6b] | 8% | Not active | Not active | 9% |  |  |  | 
CC(C)[C@@H]1NC(=O)[C@@H]2CCCN2C(=O)[C@H]2CCCN2C(=O)C[C@@H](C(=O)NCCCC(=O)NO)NC1=O [Compound 14a, Cyclo-Asp(^DPro-Pro-Val)-NHCH2CH2CH2CONHOH] ([dP]PVD[GABA]-{NHOH}; lactam N-4) |  |  |  |  | 31 | 82 | 4.5 | 67
Cyclo-Asp(^DPro-Pro-Val)-NHCH2CH2CH2OH [Compound 10a] | 26% | 1% | Not active | 1% |  |  |  | 
Cyclo-Asp(^DPro-Pro-Val)-NHCH2CH2CH2COOMe [Compound 12a] | Not active | Not active | 54.6% | 2% |  |  |  | 
Cyclo-^DAsp(^DPro-Pro-Val)-NHCH2CH2S—SCH2CH2NHP(O)(OPh) [Compound 11b] | 10% | 16% | Not active | 4% |  |  |  | 
Cyclo-^DAsp(^DPro-Pro-Val)-NHCH2CH2CH2COOMe [Compound 12b] | Not active | Not active | 5% | Not active |  |  |  | 
Cyclo-^DAsp(^DPro-Pro-Val)-NHCH2CH2CH2NH2 [Compound 16b] | 22%^a | 2%^a | 4.5% | 14%^a |  |  |  | 
Cyclo-Asp(^DPro-Pro-Val)-NHCH2CH2S—SCH2CH2NH2 [Compound 15a] | 1% | Not active | Not active | Not active |  |  |  | 
Cyclo-Asp(Pro-^DPro-Val)-NHCH2CH2CH2OH [Compound 22a] | Not active | Not active | Not active | 7% |  |  |  | 
Cyclo-Asp(^DPro-Pro-Val)-NHCH2CH2S—SCH2CH2NHP(O)(OPh) [Compound 11a] | 31% | Not active | 2.5% | 10% |  |  |  | 
Cyclo-^DAsp(^DPro-Pro-Val)-NHCH2CH2CH2S(═O)2CH3 [Compound 9b] | 22% | 1% | 4% | 3% |  |  |  | 
Cyclo-Asp(^DPro-Pro-Val)-NHCH2CH2SH [Compound 5a] | 12% | 14% | Not active | Not active |  |  |  | 
Cyclo-Asp(^DPro-Pro-Val)-NHCH2CH2CH2SCH3 [Compound 7a] | 5% | 6% | Not active | Not active |  |  |  | 
Cyclo-^DAsp(^DPro-Pro-Val)-NHCH2CH2CH2OH [Compound 10b] | 25% | 1% | 1% | 9% |  |  |  | 
Cyclo-^DAsp(^DPro-Pro-Val)-NHCH2CH2CH2S(═O)CH3 [Compound 8b] | 38% | 3% | 3.5% | 5% |  |  |  | 
Cyclo-^DAsp(^DPro-Pro-Val)-NHCH2CH2CH2COOH [Compound 13b] | Not active | Not active | 2.5% | Not active |  |  |  | 
Cyclo-Asp(^DPro-Pro-Val)-NHCH2CH2CH2S(═O)CH3 [Compound 8a] | 30% | Not active | Not active | Not active |  |  |  | 
Cyclo-Asp(^DPro-Pro-Val)-NHCH2CH2CH2NH2 [Compound 16a] | 22%^a | 2%^a | Not active | 14%^a |  |  |  | 
Cyclo-^DAsp(Pro-^DPro-Val)-NHCH2CH2CH2COOMe [Compound 23b] | 7% | 5% | 1% | Not active |  |  |  | 
Cyclo-^DAsp(^DPro-Pro-Val)-NHCH2CH2CH2CONHOH [Compound 14b] | 21% | 53% | 12.5% | 27% |  |  |  | 
Cyclo-^DAsp(Pro-^DPro-Val)-NHCH2CH2CH2CONHOH [Compound 25b] | 31% | 6% | Not active | 13% |  |  |  | 
Cyclo-^DAsp(Pro-^DPro-Val)-NHCH2CH2CH2S(═O)CH3 [Compound 20b] | 10% | 1% | 1% | 16% |  |  |  | 
